Measurements taken from patent US20220340597A1, “HEXAHYDRO-1H-PYRAZINO[1,2-A]PYRAZINE COMPOUNDS FOR THE TREATMENT OF AUTOIMMUNE DISEASE” (Hoffmann-La Roche Inc., priority 2019, published 2022).
Converted amounts (≈) assume the structure as drawn.

Key:
[1] = tested on: Balb/c 3T3 mouse fibroblasts; test: 3T3 in vitro phototoxicity assay (Neutral Red uptake); format: cell-based; conditions: for Phototoxicity factor: Factor=IC50(-UV)/IC50(+UV), cut-off >5; for IC50: Mus musculus, BALB/c3T3, light or radiation study, with approx. 5 J/cm2 UVA light, Neutral Red uptake
Description: 3T3 In Vitro Phototoxicity Assay
Phototoxicity is defined as a toxic response that is elicited after the first exposure of the skin to certain chemicals and subsequent exposure to light, or that is induced similarly by skin irradiation after systemic administration of a chemical substance. The assay used in this study is designed to detect the phototoxic potential of a chemical by using a simple in vitro cytotoxicity assay with Balb/c 3T3 mouse fibroblasts. The principle of this test is a comparison of the cytotoxicity of a chemical when tested with and without exposure to a non-toxic dose of UVA-light. Cytotoxicity is expressed as a dose dependent reduction of the growth rate of cells as determined by uptake of the vital dye Neutral Red one day after treatment.
A small amount of substance was weighed and formulated freshly in DMSO just before the start of the exposure of the cells. This stock solution or appropriate dilutions with DMSO were added to the cell suspensions to obtain the required final concentrations. All solutions were generally prepared in Eppendorf caps and discarded after use.
Chlorpromazine (HCL) (Sigma, Batch/Lot No.: 120M1328V), test concentration: 300 μg/mL, Solvent: PBS/3% DMSO
For this study the Neutral Red uptake (NRU) assay of Borenfreund and Puemer (Borenfreund, E, Puemer J A. Toxicity determined in vitro by morphological alterations and Neutral Red absorption. Toxicology Lett. 1985; 24:119-124) modified according to INVITTOX protocol No 78 (ERGATT/FRAME data bank of in vitro techniques in toxicology. INVITTOX PROTOCOL No 78. 3T3 NRU Phototoxicity Assay. March 1994) has been adapted to examine a possible phototoxic potential of the test item. This assay is based on the active uptake of the Neutral Red dye into the lysosomes of cultured murine fibroblasts. Because lysosomal membranes are known to be a site of action of many phototoxic compounds, this assay can provide a measure of potential for phototoxic injury.
A murine fibroblasts clone A 31 (ATCC no. CCL 163—passage No. 108) were cultured in 175 cm^2 tissue culture grade flasks, containing sDMEM (Dulbecco's […] Essential Medium, supplemented with 10% fetal calf serum, 2 mM L-glutamine, 100 units/ml Penicillin and 100 μg/ml streptomycin) at 37° C. in a humidified atmosphere of 6% CO2. Before cells approach confluence they were removed from flasks by trypsinisation. Prior to use in an assay, the cells were transferred to 96-well microtiter plates at a concentration of 1×10^4 cells/well in 100 μl volumes of sDMEM and allowed to attach for 24 h.
For incubation with murine fibroblasts, the test item was diluted in PBS/3% DMSO (detailed concentrations see in results).
Culture medium (Dulbecco's Modified Eagle Medium (DMEM), GlutaMAX (Gibco Ref 21885-025), 10% Fetal Bovine Serum (FBS) (Gibco Ref 10270-106), 100 IU/ml Penicillin and 100 μg/ml Streptomycin (Gibco Ref 15140-122)) was removed from the wells and murine fibroblasts were washed with PBS. Afterwards 100 μL of PBS/3% DMSO containing the test item was added and target cells were incubated for 1 h at 37° C. with 6% CO2.
For each test item the microtiter plates were prepared according to Table 4. “UVA plates” were exposed to approx. 5 J/cm^2 UVA light, the “Dark plates” were kept in the dark and served as cytotoxicity control. Plates with chlorpromazine hydrochloride served as positive control. UV flux was measured with a UV-meter (Dr. Gröbel RM21).
Following UV irradiation, the test item was removed from the wells (one washing step with PBS) and replaced with sDMEM. Target cells were then incubated overnight at 37° C. in 6% CO2.
Each plate contained wells with cells and solvent but without test item which were either not incubated with Neutral Red solution (0% standard—S1) or were stained with Neutral Red (100% standard—S2) for calculation of the standard cell viability curve. Wells labeled with U01-U08 contained the different test item concentrations. […]

[2] = tested on: TLR7 agonist-induced lupus-like disease; test: R848 agonist induced mouse lupus nephritis disease model; format: in vivo, BALB/c mice; conditions: 10 mg/kg orally once daily
Description: Agonist Induced Mouse Lupus Nephritis Disease Model To assess compound efficacy in vivo against lupus nephritis, we utilized a murine model of TLR7 agonist-induced lupus-like disease, in which TLR7 activation leads to the development of systemic autoimmune symptoms with elevated levels of autoantibodies to double-stranded DNA (anti-dsDNA), inflammatory cytokines such as IP10, as well as multiple organs involvement especially in kidney and spleen. BALB/c mice were purchased from Vital River Laboratories Co., Ltd., Beijing, China. All mice were 7 to 8-week old female. To induce disease, animals were topically treated on the right ear with 100 μg of Resiquimod (R848) solved in 20 μL of acetone for three times per week. Compound or vehicle treatment was administrated orally once daily and 30 minutes prior to the epicutanenous R848 treatment if they were on the same day. Blood samples were collected once weekly to gauge the level of autoantibody against double stranded DNA and multiple cytokines in serum. The total anti-dsDNA Immunoglobulins in serum were measured according to the manufacturer's instruction with a commercially available ELISA assay (Cat #5110, Alpha Diagnostic Inti Inc.). Cytokine levels in serum were measured with a ProcartaPlex immunoassay Kit (Cat #[…], Thermo Fisher). Specifically, 10 μL of premixed magnetic capture beads were added to a DropArray DA-bead plate (Cat #969-CC-BD-05, Curiox). After washing, 10 μL of diluted sera (1:5) was incubated on the DA-bead plate overnight at 4° c. After washing for three times, 5 μL of premixed detection antibody was added to the plate with an incubation for 60 minutes at room temperature. After washing, 10 μL of Streptavidin-PE was added with an incubation for 30 minutes at room temperature. The beads were then re-suspended in 55 μL Reading Buffer. Samples were analyzed with a Luminex 200 (Millipore). Urine samples were collected once weekly with the animals housed in metabolic cages for 24 hours, and were subjected to the measurements of urinary albumin (UALB), urinary creatinine (UCR) and urinary total protein (UTP) with a Roche Cobas 6000 Chemistry Analyzer (Roche Diagnostics, Mannheim, Germany). Tubular protein scores of 0 to 3 were based on the percentage of tubules containing proteinaceous fluid. Grade 1: <25% of tubules affected; Grade 2: 25 to 50% of tubules affected; Grade 3: >50% of tubules affected. Spleens were harvested and weighed upon study termination to evaluate splenomegaly.

| SMILES | Phototoxicity factor [1] | IC50 [1] | production of Interferon gamma-induced protein 10 (IP-10) in serum ([2]; after 1 week of treatment (FIG. 3A)) | level of anti-dsDNA autoantibodies in serum ([2]; after 2 weeks of treatment (FIG. 3B)) | kidney damage / R848-induced proteinuria (UACR) ([2]; after 5 weeks of treatment (FIG. 3C)) | splenomegaly / spleen weight ([2]; after 6 weeks of treatment (FIG. 3D)) |
| --- | --- | --- | --- | --- | --- | --- |
| C[C@@H]1CN(c2ccc(C#N)c3ncccc23)C[C@@H]2CN(Cc3ccc4c(c3)CNCC4)CCN21 [Example 5, 5-[(4R,9aS)-4-methyl-8-(1,2,3,4-tetrahydroisoquinolin-7-ylmethyl)-3,4,6,7,9,9a-hexahydro-1H-pyrazino[1,2-a]pyrazin-2-yl]quinoline-8-carbonitrile] | >1.39 | 23.3 µg/mL (≈ 51.5 µM) | – | – | – | – |
| [2H]c1ccc2c(N3C[C@@H]4CN(c5ccc([C@@H]6CNCCO6)cc5)CCN4[C@@H](C)C3)ccc(C#N)c2n1 [Example 106, 5-[(4S,9aS)-4-methyl-8-[4-[(2R)-morpholin-2-yl]phenyl]-3,4,6,7,9,9a-hexahydro-1H-pyrazino[1,2-a]pyrazin-2-yl]-2-deuterio-quinoline-8-carbonitrile] | >1.67 | 60.2 µg/mL (≈ 128 µM) | inhibited | significantly reduces | no R848-induced proteinuria increase | prevented splenomegaly |
| CO[C@@H]1CN(c2ccc(CCN3CCN4[C@@H](C3)CN(c3ccc(C#N)c5ncccc35)C[C@H]4C)cn2)C[C@H]1N [Example 12, 5-[(4R,9aS)-8-[2-[6-[(3R,4R)-3-amino-4-methoxy-pyrrolidin-1-yl]-3-pyridyl]ethyl]-4-methyl-3,4,6,7,9,9a-hexahydro-1H-pyrazino[1,2-a]pyrazin-2-yl]quinoline-8-carbonitrile] | >2.53 | – | – | – | – | – |
| CO[C@@H]1CN(c2ccc(CCN3CCN4[C@@H](C3)CN(c3ccc(C#N)n5nccc35)C[C@H]4C)cc2)C[C@H]1N [Example 68, 4-[(4R,9aS)-8-[2-[4-[(3R,4R)-3-amino-4-methoxy-pyrrolidin-1-yl]phenyl]ethyl]-4-methyl-3,4,6,7,9,9a-hexahydro-1H-pyrazino[1,2-a]pyrazin-2-yl]pyrazolo[1,5-a]pyridine-7-carbonitrile] | 1.53 | 65.9 µg/mL (≈ 128 µM) | – | – | – | – |
| C[C@@H]1CN(c2ccc(C#N)c3ncccc23)C[C@@H]2CN(c3cccc4c3CNC4)CCN21 [Example 9, 5-[(4R,9aS)-8-isoindolin-4-yl-4-methyl-3,4,6,7,9,9a-hexahydro-1H-pyrazino[1,2-a]pyrazin-2-yl]quinoline-8-carbonitrile] | >3.9 | 26.3 µg/mL (≈ 61.9 µM) | – | – | – | – |
| [2H]c1ccc2c(N3C[C@@H]4CN(CCc5ccc(N6C[C@H]7NCCO[C@@H]7C6)nc5)CCN4[C@H](C)C3)ccc(C#N)c2n1 [Example 77, 5-[(4R,9aS)-8-[2-[6-[(4aR,7aR)-3,4,4a,5,7,7a-hexahydro-2H-pyrrolo[3,4-b][1,4]oxazin-6-yl]-3-pyridyl]ethyl]-4-methyl-3,4,6,7,9,9a-hexahydro-1H-pyrazino[1,2-a]pyrazin-2-yl]-2-deuterio-quinoline-8-carbonitrile] | >1.9 | 52.5 µg/mL (≈ 97.3 µM) | – | – | – | – |
